{
  "source": "patent US10913844B2",
  "about": "“Plasticized thermoset resin, and associated cured resin, method of curing, and article comprising cured resin” (The University of Massachusetts, priority 2016, dated 2021)",
  "origin": "cited, not measured here",
  "details": "solvent furfural",
  "data": [
    {"smiles": "C1N2CN3CN1CN(C2)C3", "note": "[HMTA, hexamethylenetetramine]", "values": [
      {"measurement": "solubility of HMTA in furfural", "value": "less than two"}
    ]}
  ]
}
